Series [1] in a line: Comparative study in rats: knee tissue concentrations after intraarticular dosing. It is filed as in vivo. The note with it: male, rat, knee tissues, across the three formulations. How it is done:
(§1) Animals: 63 male rats (21 rats per formulation; plus an additional 3 animals as a replacement). Body weight: average 263 g (236-295 g). Dose (IA): ˜36.6 ng/kg=>9.6 ng/knee as an injection of 30 μL/knee of three various formulations with concentration 320 ng/mL. PK sampling: 7 timepoints: 10 min (animals not fully conscious between dosing and sampling), 20 min, 30 min, 1 h, 1.5 h, 2 h and 4 h (one sample per rat; 3 rats per timepoint) in plasma and synovial fluid. Tissue samples: at same time points as PK samples following tissue samples: meniscus, patella, femoral head and tibial plateau.

Series [2] relates to naturally-occurring canine osteoarthritis. The note with it: single intraarticular injection of 10 μg; 7 dogs with osteoarthritis; cited from earlier work.
The test system of series [3] is moderate to severe pain due to osteoarthritis of the knee. As to conditions: cited from earlier work.
Series [4] has as its system chronic osteoarthritic knee joint pain. Briefly: Randomized, double-blind, placebo-controlled single-dose human study: analgesic effect of intraarticular injection. It is filed as in vivo. The note with it: for mean (SD) absolute reduction of visual analog scale score, pain on motion: 6 months, VAS 0-100 mm, placebo 28.26. How it is done: In a human study, two pharmaceutical dosage forms according to the invention were used comprising Resiniferatoxin (100 or 400 ng) in an aqueous ethanolic solution additionally containing polysorbate 80 (Tween® 80) as surfactant, trometamol as buffer and a combination of NaCl, KCl, and CaCl2) as inorganic salts.
(§2) The primary objective of this study was to compare the analgesic effects of single intraarticular injections of Resiniferatoxin (100 or 400 ng) compared to placebo, at 3 and 6 months postinjection, in participants with chronic osteoarthritic knee joint pain. Secondary objectives were to evaluate the analgesic effects of Resiniferatoxin versus placebo in terms of a responder analysis (percentage of subjects achieving ≥50% or ≥70% reduction in visual analog scale pain score) and changes in Western Ontario and McMaster Universities Arthritis Index (WOMAC) total and subscale scores (pain, physical function and stiffness). Safety and injection site pain were also evaluated.
(§3) The study was conducted as a randomized, double-blind, placebo-controlled, single-dose trial of Resiniferatoxin. Eligible patients were aged 40 to 80 years with radiographic knee osteoarthritis (Kellgren-Lawrence Grade 2-4 in the last 3 years) and a baseline visual analog scale (0-100 mm) pain score ≥40 mm on motion in the target knee, with or without pain medication. 67 subjects were randomized to treatment with either Resiniferatoxin 100 ng (n=24) or 400 ng (n=23), or placebo (n=20), administered intraarticularly into the index knee. Intraarticular Ropivacaine (5 ml, 0.5%) was administered 15 mins before investigational medicinal product. Visual analog scale scores were used to evaluate pain on motion as the average of the last 2 days in a target knee between baseline and at 3 and 6 months post injection. Injection site pain was rated (visual analog scale) from baseline (−0.5 h) up to 3 h post intraarticular injections.

Series [5] in a line: Human study: safety and injection site pain after intraarticular injection. The note with it: for subjects with severe adverse events: none related to investigational medicinal product; for incidence of treatment emergent adverse events: placebo 75.0%. Format: in vivo. As for the experimental part:
as §2, §3

Series [6] is described as follows: Comparative study in rats: synovial fluid pharmacokinetics after intraarticular dosing. Format: in vivo. The note with it: male, rat, 9.6 ng, across the three formulations. How it is done:
as §1
Sampling of synovial fluid: A 0.5 ml 28G Insulin syringes (fixed needle, no hub) were filled with 100 μl of the saline/EDTA solution. The skin was removed from the joint and then the needle was inserted through the patellar tendon into the joint space. The solution was then injected into the joint space, the knee was flexed a couple/few times (all with the needle still in the joint) and then was pulled back on the plunger to collected the mix of saline/EDTA and synovial fluid. The lavage fluid was then put into a microcentrifuge tube, it was spun to pellet any cells/debris and then the supernatant was collected.

The mark [7] stands for this setting: single intraarticular doses 100 ng or 400 ng.

A value given as a limit tells only on which side of the number the result lay.

Broadly, the half-life is how long it takes for the measured level to halve. With `C=C(C)[C@]12C[C@@H](C)[C@@]34O[C@](Cc5ccccc5)(O[C@@H]1[C@@H]3C=C(COC(=O)Cc1ccc(O)c(OC)c1)C[C@]1(O)C(=O)C(C)=C[C@@H]41)O2` [Resiniferatoxin, 4-hydroxy-3-methoxy-benzeneacetic acid, [(2S,3aR,3bS,6aR,9aR,9bR, 10R,11aR)-3a, 3b, 6,6a, 9a,10,11,11a-octahydro-6a-hydroxy-8,10-dimethyl-11a-(1-methylethenyl)-7-oxo-2-(phenylmethyl)-7H-2,9b-epoxyazuleno[5,4-e]-1,3-benzodioxol-5-yl]methyl ester], the half-life in series [1] (9.6 ng, read-out: half-life in the tissues (converted)) was roughly 1.5 h; in series [1] (other: intraarticular, 9.6 ng/knee, read-out: half-life in the tissues (converted)) it was roughly 1.5 h; in series [1] (other: intraarticular, 9.6 ng/knee, read-out: half-life in the tissues (range)), 0.895 to 3.21 h; in series [6] (read-out: half-life in SF (converted)) it was roughly 1.5 h; in series [6] (read-out: half-life in SF (range)) it was 1.07 to 1.85 h. Also, in series [2], the analgesic effect entry was “significant and prolonged analgesic effect”. Also, the “sustained pain relief (anecdotal long-term follow up)” value in series [3] (one-time intraarticular dose 5-30 μg) was greater than 365 days. The “safety as onetime intraarticular injection” value in series [3] (up to the planned highest dose of 30 μg) is reported as “demonstrated safety”. In addition, the “reduction in WOMAC total and subscale scores (pain, physical function and stiffness) versus placebo” value in series [4] (100 ng and 400 ng groups, at both 3 and 6 months) is reported as “greater reduction”. For the same compound, the “mean (SD) absolute reduction of visual analog scale score, pain on motion” value is 33.52 (22.89) in series [4] (100 ng single intraarticular injection) and 41.48 (32.57) in series [4] (400 ng single intraarticular injection). Further, in series [4] (setting [7]), the “analgesia evident during the follow-up period” value is listed as “at least 3 months”. Besides, the “analgesic onset after administration” value in series [4] (setting [7]) was “within one week”. Besides, the figures for the “subjects with severe adverse events” value in series [5] (100 ng group (n=24)) and in series [5] (400 ng group (n=23)) were 2 subjects and 3 subjects, respectively. Also, the “incidence of treatment emergent adverse events” value in series [5] (100 ng group) stood at 62.5%; in series [5] (400 ng group), 78.3%. The “injection site pain (procedural pain) compared to placebo” value in series [5] (intraarticular, 100 or 400 ng, VAS up to 3 h post injection) was “generally higher”. In addition, the “time of peak injection site pain post-injection” value in series [5] (moderate-severe intensity in some subjects) is given as “around 0.5 h”. Moreover, in series [5] (post-injection), the “injection site pain return to baseline” value is reported as no more than 3 h. Moreover, in series [5] (setting [7]), the “safety profile and tolerability” value was “good safety profile”.

These data come from patent US20250228765A1, “TREATING KNEE JOINT PAIN BY INJECTING RESIN[…] ULTRA LOW DOSES” (Gruenenthal GmbH, priority 2024, published 2025).
